Measured values from patent US7977371B2, “Pyrrole derivative having ureido group and aminocarbonyl group as substituents” (Santen Pharmaceutical Co., Ltd., priority 2007, dated 2011).
Where a name gives a salt, the structure may show the parent alone.

Each molecule was assayed on TNF-α-induced IL-6 production in normal human skin fibroblast-derived CCD-1059Sk cells (assay: Test for measurement of inhibitory activity against TNF-α-induced IL-6 production). Conditions: Homo sapiens, CCD-1059Sk, 16 h, test compound at 10 μM, TNF-α stimulation 16 hours, inhibition ratio of 100% or more is indicated as 100%.
Assay type: cell-based
Procedure: 1. Test for Measurement of Inhibitory Activity Against IL-6 Production
An inhibitory effect on TNF-α-induced IL-6 production in normal human skin fibroblast-derived CCD-1059Sk cells (ATCC No. CRL-2072) was evaluated. The amount of IL-6 was determined by the homogeneous time-resolved fluorescence method using HTRF™ Human IL-6 kit (Cat. No. 62IL6PEB, manufactured by CIS-Bio international, Inc.). Specific test methods will be described below.
(Preparation of Test Compound Solution)
After a test compound was dissolved in dimethyl sulfoxide, the resulting solution was diluted with D-MEM medium containing 0.1% heat-inactivated fetal bovine serum, 0.1 mM MEM non-essential amino acid solution, 100 U/mL penicillin and 100 μg/mL streptomycin (hereinafter referred to as “medium”), whereby a 40 μM test compound solution was prepared.
(Test Method and Measurement Method)
1) CCD-1059Sk cells prepared at a density of 3×10^5 cells/mL were inoculated in a 384-well plate in an amount of 10 μL per well such that the cell density was 3×10^3 cells/well.
2). After the plate was incubated at 37° C. for several hours in a CO2 incubator, 5 μL of the test compound was added to each well.
3) After the plate was incubated at 37° C. for 1 hour in a CO2 incubator, 5 μL of a 40 ng/mL TNF-α solution was added to each well.
4) After the plate was incubated at 37° C. for 16 hours in a CO2 incubator, 10 μL of a cryptate-labeled anti-IL-6 antibody and an XL665-labeled anti-IL-6 antibody containing potassium fluoride was added to each well.
5) After the plate was incubated at room temperature for several hours, a fluorescence intensity ratio (665 nm/620 nm) was determined for each well using a multimode plate reader Analyse™ HT (manufactured by Molecular Device Corporation) and Criterion Host software version 2.00 (manufactured by Molecular Device Corporation), and then, the amount of IL-6 was calculated.
6) The same procedures as in the above 1) to 5) were performed except that 0.4% dimethyl sulfoxide was added in place of the test compound, and the obtained result was designated as the control.
7) The same procedures as in the above 1) to 5) were performed except that 0.4% dimethyl sulfoxide and the medium were added in place of the test compound and the TNF-α solution, respectively, and the obtained result was designated as the background.
(Calculation Formula of IL-6 Production Inhibition Ratio)
An IL-6 production inhibition ratio (%) was calculated from the following formula. IL-6 Production Inhibition Ratio (%)=100×{1−[(Amount of IL-6 for Test Compound)−(Amount of IL-6 for Background)/(Amount of IL-6 for Control)−(Amount of IL-6 for Background)]} (Evaluation Results)

Q: Which inhibition at 10 µM does the source give for `NC(=O)Nc1[nH]c(-c2ccccc2OCCCF)cc1C(N)=O` [Compound 4-24, 2-Aminocarbonylamino-5-[2-(3-fluoropropyloxy)phenyl] pyrrole-3-carboxamide] here?
A: The inhibition at 10 µM was 99%.

Q: `NC(=O)Nc1[nH]c(-c2ccccc2OCCN2CCCCC2)cc1C(N)=O` [Compound 4-27, 2-Aminocarbonylamino-5-[2-[2-(piperidin-1-yl)ethyloxyl]phenyl]pyrrole-3-carboxamide] was tested. Which inhibition at 10 µM did it give?
A: Its inhibition at 10 µM is 99%.

Q: `CN(C)CCCOc1ccccc1-c1cc(C(N)=O)c(NC(N)=O)[nH]1` [Compound 4-30, 2-Aminocarbonylamino-5-[2-(3-dimethylaminopropyloxy)phenyl]pyrrole-3-carboxamide] was tested. Which inhibition at 10 µM did it give?
A: Its inhibition at 10 µM is 99%.

Q: Which inhibition at 10 µM does the source give for `CN(C)CCOc1ccccc1-c1cc(C(N)=O)c(NC(N)=O)[nH]1` [Compound 4-31, 2-Aminocarbonylamino-5-[2-(2-dimethylaminoethyloxy)phenyl]pyrrole-3-carboxamide] here?
A: The inhibition at 10 µM was 98%.

Q: With `CN1CCCC1CCOc1ccccc1-c1cc(C(N)=O)c(NC(N)=O)[nH]1` (stereo not drawn) [Compound 4-32, 2-Aminocarbonylamino-5-[2-[2-(1-methylpyrrolidin-2-yl)ethyloxy]phenyl]pyrrole-3-carboxamide] as the molecule, how does the inhibition at 10 µM read?
A: Its inhibition at 10 µM is 99%.

Q: With `NC(=O)Nc1[nH]c(-c2cc(F)ccc2OCCCO)cc1C(N)=O` [Compound 4-35, 2-Aminocarbonylamino-5-[5-fluoro-2-(3-hydroxypropyloxy)phenyl]pyrrole-3-carboxamide] as the molecule, how does the inhibition at 10 µM read?
A: The inhibition at 10 µM was 100%.

Q: For `CCOc1ccc(F)cc1-c1cc(C(N)=O)c(NC(N)=O)[nH]1` [Compound 4-47, 2-Aminocarbonylamino-5-(2-ethoxy-5-fluorophenyl)pyrrole-3-carboxamide], which inhibition at 10 µM is on record?
A: The inhibition at 10 µM was 100%.

Q: With `CCOc1ccc(Cl)cc1-c1cc(C(N)=O)c(NC(N)=O)[nH]1` [Compound 4-48, 2-Aminocarbonylamino-5-(5-chloro-2-ethoxyphenyl)pyrrole-3-carboxamide] as the molecule, how does the inhibition at 10 µM read?
A: Its inhibition at 10 µM is 100%.

Q: For `C=CCOc1ccc(Cl)cc1-c1cc(C(N)=O)c(NC(N)=O)[nH]1` [Compound 4-49, 5-(2-Allyloxy-5-chlorophenyl)-2-(aminocarbonylamino)pyrrole-3-carboxamide], which inhibition at 10 µM is on record?
A: The inhibition at 10 µM was 100%.

Q: Which inhibition at 10 µM does the source give for `C#CCOc1ccc(Cl)cc1-c1cc(C(N)=O)c(NC(N)=O)[nH]1` [Compound 4-50, 2-Aminocarbonylamino-5-[5-chloro-2-(2-propynyloxy)phenyl]pyrrole-3-carboxamide] here?
A: Its inhibition at 10 µM is 100%.

Q: `CC(=O)Oc1ccccc1-c1cc(C(N)=O)c(NC(N)=O)[nH]1` [Compound 5-1, 2-Aminocarbonylamino-5-(2-acetoxyphenyl)pyrrole-3-carboxamide] was tested. Which inhibition at 10 µM did it give?
A: The inhibition at 10 µM was 94%.

Q: With `NC(=O)Nc1[nH]c(-c2ccc(F)cc2)c(Cl)c1C(N)=O` [Compound 7-3] as the molecule, how does the inhibition at 10 µM read?
A: The inhibition at 10 µM was 98%.

Q: Which inhibition at 10 µM does the source give for `NC(=O)Nc1[nH]c(-c2ccccc2OCCCN2CCCC2)cc1C(N)=O` [Compound 8-1, 2-Aminocarbonylamino-5-[2-[3-(pyrrolidin-1-yl)propyloxy]phenyl]pyrrole-3-carboxamide] here?
A: The inhibition at 10 µM was 97%.

Q: With `CN1CCN(CCOc2ccccc2-c2cc(C(N)=O)c(NC(N)=O)[nH]2)CC1` [Compound 8-2] as the molecule, how does the inhibition at 10 µM read?
A: Its inhibition at 10 µM is 77%.

Q: Which inhibition at 10 µM does the source give for `NC(=O)Nc1[nH]c(-c2ccccc2OCCN2CCOCC2)cc1C(N)=O` [Compound 8-3] here?
A: The inhibition at 10 µM was 95%.

Q: `NC(=O)Nc1[nH]c(-c2ccccc2OCCN2CCCC2)cc1C(N)=O` [Compound 8-4] was tested. Which inhibition at 10 µM did it give?
A: Its inhibition at 10 µM is 99%.

Q: For `CC1CCN(CCOc2ccccc2-c2cc(C(N)=O)c(NC(N)=O)[nH]2)CC1` [Compound 8-10], which inhibition at 10 µM is on record?
A: Its inhibition at 10 µM is 98%.

Q: For `CN(CCO)CCOc1ccccc1-c1cc(C(N)=O)c(NC(N)=O)[nH]1` [Compound 8-11], which inhibition at 10 µM is on record?
A: Its inhibition at 10 µM is 96%.

Q: Which inhibition at 10 µM does the source give for `NC(=O)Nc1[nH]c(-c2cc(F)ccc2OCCN2CCCC2)cc1C(N)=O` [Compound 8-12] here?
A: The inhibition at 10 µM was 100%.

Q: Which inhibition at 10 µM does the source give for `CC1CCN(CCOc2ccc(F)cc2-c2cc(C(N)=O)c(NC(N)=O)[nH]2)CC1` [Compound 8-13] here?
A: The inhibition at 10 µM was 100%.

Q: For `NC(=O)Nc1[nH]c(-c2cc(Cl)ccc2OCCN2CCCCC2)cc1C(N)=O` [Compound 8-14], which inhibition at 10 µM is on record?
A: The inhibition at 10 µM was 100%.

Q: For `CN1CCN(CCOc2ccc(Cl)cc2-c2cc(C(N)=O)c(NC(N)=O)[nH]2)CC1` [Compound 8-15], which inhibition at 10 µM is on record?
A: The inhibition at 10 µM was 98%.

Q: For `NC(=O)Nc1[nH]c(-c2cc(Cl)ccc2OCCN2CCC(CCO)CC2)cc1C(N)=O` [Compound 8-16], which inhibition at 10 µM is on record?
A: The inhibition at 10 µM was 100%.

Q: How did the inhibition at 10 µM turn out when `CN(CCO)CCOc1ccc(F)cc1-c1cc(C(N)=O)c(NC(N)=O)[nH]1` [Compound 8-17] was run?
A: The inhibition at 10 µM was 100%.

Q: `CSCCOc1ccc(F)cc1-c1cc(C(N)=O)c(NC(N)=O)[nH]1` [Compound 8-18] was tested. Which inhibition at 10 µM did it give?
A: The inhibition at 10 µM was 100%.

Q: `CN(CCOc1ccc(F)cc1-c1cc(C(N)=O)c(NC(N)=O)[nH]1)C1CCCCC1` [Compound 8-22] was tested. Which inhibition at 10 µM did it give?
A: The inhibition at 10 µM was 98%.

Q: `C=Cc1ccc(-c2cc(C(N)=O)c(NC(N)=O)[nH]2)cc1` [Compound 9-1, 2-Aminocarbonylamino-5-(4-vinylphenyl)pyrrole-3-carboxamide] was tested. Which inhibition at 10 µM did it give?
A: Its inhibition at 10 µM is 100%.

Q: How did the inhibition at 10 µM turn out when `NC(=O)Nc1[nH]c(-c2ccoc2)cc1C(N)=O` [Compound 9-2] was run?
A: The inhibition at 10 µM was 87%.

Q: How did the inhibition at 10 µM turn out when `NC(=O)Nc1[nH]c(-c2cccc(C#CCO)c2)cc1C(N)=O` [Compound 10-3] was run?
A: Its inhibition at 10 µM is 100%.

Q: With `C#Cc1cccc(-c2cc(C(N)=O)c(NC(N)=O)[nH]2)c1` [Compound 11-1, 2-Aminocarbonylamino-5-(3-ethynylphenyl)pyrrole-3-carboxamide] as the molecule, how does the inhibition at 10 µM read?
A: Its inhibition at 10 µM is 100%.

Q: `CSCc1cccc(-c2cc(C(N)=O)c(NC(N)=O)[nH]2)c1` [Compound 15-1, 2-Aminocarbonylamino-5-(3-methylthiomethylphenyl)pyrrole-3-carboxamide] was tested. Which inhibition at 10 µM did it give?
A: The inhibition at 10 µM was 98%.

Q: `NC(=O)Nc1[nH]c(-c2cccc(Cl)c2)c(C=O)c1C(N)=O` [Compound 17-1, 2-Aminocarbonylamino-5-(3-chlorophenyl)-4-formylpyrrole-3-carboxamide] was tested. Which inhibition at 10 µM did it give?
A: The inhibition at 10 µM was 98%.

Q: For `NC(=O)Nc1[nH]c(-c2cccc(Cl)c2)c(CO)c1C(N)=O` [Compound 18-1, 2-Aminocarbonylamino-5-(3-chlorophenyl)-4-(hydroxymethyl)pyrrole-3-carboxamide], which inhibition at 10 µM is on record?
A: Its inhibition at 10 µM is 90%.

Q: With `CNCc1c(-c2cccc(Cl)c2)[nH]c(NC(N)=O)c1C(N)=O` [Compound 19-1, 2-Aminocarbonylamino-5-(3-chlorophenyl)-4-(methylaminomethyl)pyrrole-3-carboxamide] as the molecule, how does the inhibition at 10 µM read?
A: The inhibition at 10 µM was 97%.

Q: With `CNCCOc1ccccc1-c1cc(C(N)=O)c(NC(N)=O)[nH]1` [Compound 20-1, 2-Aminocarbonylamino-5-[2-(2-methylaminoethyloxy)phenyl]pyrrole-3-carboxamide hydrochloride] as the molecule, how does the inhibition at 10 µM read?
A: Its inhibition at 10 µM is 95%.

Same assay, conditions: Homo sapiens, test compound at 10 μM, TNF-α stimulation 16 hours, inhibition ratio of 100% or more is indicated as 100%

Q: With `CCCNC(=O)Oc1ccccc1-c1cc(C(N)=O)c(NC(N)=O)[nH]1` [Compound 6-1, 2-Aminocarbonylamino-5-(2-propylaminocarbonyloxyphenyl)pyrrole-3-carboxamide] as the molecule, how does the inhibition at 10 µM read?
A: Its inhibition at 10 µM is 99%.
